One experiment relates to Pyricularia oryzae. The class given is in vivo. Conditions: Rice blast, 7 days after inoculation.
The test system of another experiment is Puccinia recondita. Put plainly: Effect on Wheat brown rust (preventive spray test). The class given is in vivo. The following applies: 7 days after inoculation.
A further experiment has as its system Rhizoctonia solani. As to the kind of experiment: Effect on Rice sheath blight (preventive spray test). The following applies: 10 days after inoculation.
For another experiment, the system named is Erysiphe graminis. Put plainly: Effects on Barley powdery mildew (preventive spray test). Conditions: lesions counted seven days after inoculation. Format: in vivo.
A further experiment relates to Phytophthora infestans. The class given is in vivo. The following applies: Tomato late blight, 5 days after inoculation.
The subject of experiment [1] is Psecidoperonospora cubensis. Put plainly: Effect on Cucumber downy mildew (preventive spray test). Format: in vivo. The following applies: 7 days after inoculation.
A further experiment deals with Chochliobolus miyabeanus. Put plainly: Effect on Rice brown spot (preventive spray test). The class given is in vivo. The following applies: 7 days after inoculation.
A further experiment deals with Botrytis cinerea. As to the kind of experiment: Effect on Cucumber gray mold (cotyledon paper disc test). The class given is in vivo. The following applies: 3 days after inoculation.
[2] abbreviates: conc. of active ingredient 20 ppm.
Where [3] appears, read: conc. of active ingredient 100 ppm.
[4] abbreviates: conc. of active ingredient 4 ppm.

Read-outs that look alike come from different tables or passages of the source.

With `CCc1c(OCc2ccccc2C(=NOC)C(=O)NC)ccc2c1OCCC2=NOC` [c-30], the “Preventive rate (%)” value in the experiment with Pyricularia oryzae (setting [2]) is given as 100%; in the experiment with Pyricularia oryzae (setting [3]) it was 100%; in the experiment on Puccinia recondita (setting [4]), 100%; in the experiment on Puccinia recondita (setting [2]), 100%; in the experiment with Puccinia recondita (setting [3]), 100%; with Rhizoctonia solani (setting [2]) it was 56%. Moreover, the “Preventive rate (%)” value worked out at 98% in the experiment on Rhizoctonia solani (setting [3]), 95% with Erysiphe graminis (setting [4]), 100% with Erysiphe graminis (setting [2]) and 100% in the experiment with Erysiphe graminis (setting [3]).

For `CCON=C1COc2c1ccc(OCc1ccccc1/C(=N\OC)C(=O)OC)c2C` [a-35], the “Preventive rate (%)” value in the experiment with Rhizoctonia solani (setting [2]) came out at 80%; in the experiment with Rhizoctonia solani (setting [3]), 84%; with Erysiphe graminis (setting [4]), 98%; with Erysiphe graminis (setting [2]), 100%; in the experiment with Erysiphe graminis (setting [3]), 100%.

Take `CCCON=C1COc2c1ccc(OCc1ccccc1/C(=N\OC)C(=O)NC)c2C` [a-42]: the “Preventive rate (%)” value in the experiment with Phytophthora infestans (setting [2]) came to 98%; with Phytophthora infestans (setting [3]), 98%; with Pyricularia oryzae (setting [2]) it was 90%; in the experiment on Pyricularia oryzae (setting [3]), 98%; with Puccinia recondita (setting [4]) it was 100%; in the experiment with Puccinia recondita (setting [2]) it was 100%. The “Preventive rate (%)” value in the experiment on Puccinia recondita (setting [3]) amounted to 100%; in experiment [1] (setting [4]) it was 100%; in experiment [1] (setting [2]), 100%; in experiment [1] (setting [3]) it was 100%; in the experiment on Erysiphe graminis (setting [2]), 88%; in the experiment with Erysiphe graminis (setting [3]), 100%. The results for the “Preventive rate (%)” value with Chochliobolus miyabeanus (setting [2]) and in the experiment with Chochliobolus miyabeanus (setting [3]) were 85% and 91%, respectively.

For `COC=C(C(=O)OC)c1ccccc1COc1ccc2c(c1C)C(C)CC2=NOC` (racemic) [f-5], the “Preventive rate (%)” value worked out at 92% with Phytophthora infestans (setting [4]); 100% in the experiment with Phytophthora infestans (setting [2]); 100% in the experiment with Phytophthora infestans (setting [3]); 72% in the experiment with Pyricularia oryzae (setting [4]); 89% in the experiment on Pyricularia oryzae (setting [2]); 94% in the experiment with Pyricularia oryzae (setting [3]). Moreover, the “Preventive rate (%)” value in the experiment on Puccinia recondita (setting [4]) was 100%; in the experiment on Puccinia recondita (setting [2]), 100%; in the experiment with Puccinia recondita (setting [3]), 100%; in experiment [1] (setting [4]) it was 99%; in experiment [1] (setting [2]), 100%; in experiment [1] (setting [3]), 100%. The “Preventive rate (%)” value with Erysiphe graminis (setting [4]) is recorded as 97%; in the experiment with Erysiphe graminis (setting [2]), 100%; with Erysiphe graminis (setting [3]), 100%; in the experiment with Chochliobolus miyabeanus (setting [4]), 53%; with Chochliobolus miyabeanus (setting [2]), 94%; in the experiment on Chochliobolus miyabeanus (setting [3]) it was 98%.

Take `CNC(=O)C(=NOC)c1ccccc1COc1ccc2c(c1C)OCCC2=NOCc1c(F)c(F)c(F)c(F)c1F` [c-83]: the “Preventive rate (%)” value in the experiment on Puccinia recondita (setting [4]) was 95%; with Puccinia recondita (setting [2]) it was 100%; in the experiment with Puccinia recondita (setting [3]) it was 100%; in the experiment with Rhizoctonia solani (setting [2]), 79%; in the experiment with Rhizoctonia solani (setting [3]) it was 81%; in the experiment with Erysiphe graminis (setting [2]), 96%. Further, in the experiment on Erysiphe graminis (setting [3]), the “Preventive rate (%)” value worked out at 100%.

On to `CON=C(C(=O)OC)c1ccccc1COc1ccc2c(c1C)OCCC2=NOC` [c-15], for which the “Preventive rate (%)” value came out at 75% in the experiment on Botrytis cinerea (setting [2]); 77% with Botrytis cinerea (setting [3]); 84% in the experiment on Phytophthora infestans (setting [4]); 94% with Phytophthora infestans (setting [2]); 100% in the experiment with Phytophthora infestans (setting [3]); 80% in the experiment with Pyricularia oryzae (setting [2]). Further, the “Preventive rate (%)” value in the experiment with Pyricularia oryzae (setting [3]) was 100%; with Puccinia recondita (setting [2]) it was 100%; in the experiment on Puccinia recondita (setting [3]), 100%; in experiment [1] (setting [4]) it was 81%; in experiment [1] (setting [2]), 100%; in experiment [1] (setting [3]), 100%. Also, the “Preventive rate (%)” value with Erysiphe graminis (setting [4]) was found to be 100%; in the experiment with Erysiphe graminis (setting [2]) it was 100%; with Erysiphe graminis (setting [3]), 100%; in the experiment on Chochliobolus miyabeanus (setting [2]) it was 97%; in the experiment with Chochliobolus miyabeanus (setting [3]) it was 100%.

Take `CNC(=O)C(=NOC)c1ccccc1COc1ccc2c(c1C)OC(C)CC2=NOC` (racemic) [d-11]: the “Preventive rate (%)” value in the experiment on Pyricularia oryzae (setting [4]) amounted to 68%; with Pyricularia oryzae (setting [2]), 78%; with Pyricularia oryzae (setting [3]) it was 95%; in the experiment with Puccinia recondita (setting [4]), 100%; with Puccinia recondita (setting [2]), 100%; in the experiment with Puccinia recondita (setting [3]), 100%. Also, the “Preventive rate (%)” value in experiment [1] (setting [4]) stood at 93%; in experiment [1] (setting [2]), 96%; in experiment [1] (setting [3]) it was 100%; in the experiment with Rhizoctonia solani (setting [2]), 75%; in the experiment with Rhizoctonia solani (setting [3]) it was 96%; with Erysiphe graminis (setting [2]), 99%. For the same compound, the “Preventive rate (%)” value in the experiment with Erysiphe graminis (setting [3]) amounted to 99%.

In the case of `C#CCON=C1COc2c1ccc(OCc1ccccc1/C(=N\OC)C(=O)NC)c2C` [a-71], the “Preventive rate (%)” value in the experiment with Botrytis cinerea (setting [2]) is recorded as 100%; with Botrytis cinerea (setting [3]) it was 100%; with Pyricularia oryzae (setting [2]), 89%; in the experiment on Pyricularia oryzae (setting [3]), 91%; in the experiment with Puccinia recondita (setting [4]) it was 100%; with Puccinia recondita (setting [2]), 100%. Further, the “Preventive rate (%)” value (in the experiment on Puccinia recondita (setting [3]); in experiment [1] (setting [4]); in experiment [1] (setting [2]); in experiment [1] (setting [3]); in the experiment on Erysiphe graminis (setting [2]); in the experiment on Erysiphe graminis (setting [3])) was 100% throughout.

`CNC(=O)/C(=N/OC)c1ccccc1COc1ccc2c(c1)OCC2=NOC(C)C` [a-40]: the “Preventive rate (%)” value was found to be 100% in the experiment with Botrytis cinerea (setting [2]); 100% in the experiment with Botrytis cinerea (setting [3]); 97% with Puccinia recondita (setting [2]); 100% in the experiment on Puccinia recondita (setting [3]); 97% in experiment [1] (setting [2]); 100% in experiment [1] (setting [3]).

`CNC(=O)C(=NOC)c1ccccc1COc1ccc2c(c1C)OCCC2=NOC` [c-16]: the “Preventive rate (%)” value was determined as 49% with Botrytis cinerea (setting [2]); 60% with Botrytis cinerea (setting [3]); 84% with Phytophthora infestans (setting [4]); 100% in the experiment on Phytophthora infestans (setting [2]); 100% with Phytophthora infestans (setting [3]); 91% in the experiment with Pyricularia oryzae (setting [2]). Moreover, the “Preventive rate (%)” value in the experiment on Pyricularia oryzae (setting [3]), in the experiment on Puccinia recondita (setting [2]), in the experiment on Puccinia recondita (setting [3]), in the experiment on Erysiphe graminis (setting [2]) and in the experiment on Erysiphe graminis (setting [3]) was 100% each time.

On to `COC=C(C(=O)OC)c1ccccc1COc1ccc2c(c1)OCC2=NOC` [a-2], for which the “Preventive rate (%)” value in the experiment on Phytophthora infestans (setting [4]) amounted to 97%; with Phytophthora infestans (setting [2]), 97%; in the experiment on Phytophthora infestans (setting [3]), 100%; in the experiment on Pyricularia oryzae (setting [2]), 95%; in the experiment with Pyricularia oryzae (setting [3]) it was 97%; with Puccinia recondita (setting [4]) it was 98%. Besides, the “Preventive rate (%)” value in the experiment on Puccinia recondita (setting [2]) was 100%; in the experiment on Puccinia recondita (setting [3]), 100%; in experiment [1] (setting [2]) it was 100%; in experiment [1] (setting [3]) it was 100%; in the experiment on Erysiphe graminis (setting [2]) it was 79%; in the experiment on Erysiphe graminis (setting [3]), 100%. For the same compound, the results for the “Preventive rate (%)” value in the experiment with Chochliobolus miyabeanus (setting [2]) and in the experiment with Chochliobolus miyabeanus (setting [3]) were 93% and 96%, respectively.

`CON=C1COc2cc(OCc3ccccc3/C(=N\OC)C(=O)OC)c(C)cc21` [a-26]: the “Preventive rate (%)” value is 72% in the experiment with Botrytis cinerea (setting [2]); 87% with Botrytis cinerea (setting [3]); 81% in the experiment with Phytophthora infestans (setting [2]); 100% in the experiment on Phytophthora infestans (setting [3]); 100% in the experiment on Puccinia recondita (setting [4]); 100% in the experiment with Puccinia recondita (setting [2]). Also, the “Preventive rate (%)” value (with Puccinia recondita (setting [3]); in experiment [1] (setting [2]); in experiment [1] (setting [3])) was 100% in each case.

`CON=C1COc2c1ccc(OCc1ccccc1/C(=N\OC)C(=O)OC)c2C` [a-15]: the “Preventive rate (%)” value is 73% in the experiment on Botrytis cinerea (setting [2]); 96% in the experiment on Botrytis cinerea (setting [3]); 81% with Phytophthora infestans (setting [2]); 94% in the experiment on Phytophthora infestans (setting [3]); 96% in the experiment on Puccinia recondita (setting [4]); 96% in the experiment on Puccinia recondita (setting [2]). The “Preventive rate (%)” value with Puccinia recondita (setting [3]) was determined as 100%.

Turning to `CNC(=O)/C(=N/OC)c1ccccc1COc1ccc2c(c1)OCC2=NOC/C=C/Cl` [a-63], the “Preventive rate (%)” value in the experiment with Botrytis cinerea (setting [2]) is reported as 100%; in the experiment with Botrytis cinerea (setting [3]), 100%; in experiment [1] (setting [2]) it was 100%; in experiment [1] (setting [3]) it was 100%; in the experiment on Erysiphe graminis (setting [4]), 99%; in the experiment on Erysiphe graminis (setting [2]), 100%. Also, the “Preventive rate (%)” value in the experiment on Erysiphe graminis (setting [3]) is given as 100%.

For `CNC(=O)C(OC)c1ccccc1COc1ccc2c(c1)OCC2=NOC` (racemic) [a-11], the “Preventive rate (%)” value in the experiment with Botrytis cinerea (setting [2]) turned out to be 40%; with Botrytis cinerea (setting [3]) it was 87%; with Puccinia recondita (setting [2]), 88%; in the experiment on Puccinia recondita (setting [3]) it was 100%; with Erysiphe graminis (setting [2]), 88%; in the experiment with Erysiphe graminis (setting [3]), 100%.

For the origin of these results see patent US6399542B1, “Alkoxyimino-substituted bicyclic compounds compositions containing the same and method of making such compounds” (Agro-Kanesho Co., Ltd., priority 1997, dated 2002).
